According to patent publication US5834244A, “Factor VIIa inhibitors from Kunitz domain proteins” (Genentech, Inc., priority 1995, dated 1998):
Read-outs that look alike come from different tables or passages of the source. One block for each compound: values may come before it. Positions of bridges follow the written chain, without caps; N, C: chain ends. No end group written: not given here.

Legend:
[1] = test system: Male New Zealand white rabbits; experiment: Cuticle bleeding time assay; assay type: in vivo, rabbit; settings: for bleeding compared to the saline control (in words): after 10 minutes
Protocol: (§1) Male New Zealand white rabbits (~4 kg) were anesthetized to surgical anesthesia plane with an IM injection of Ketamine / Xylaxine. The rabbits were placed supine on a restraining board, warmed to 37° C., and the neck and inner thigh area shaved. Teflon catheters were replaced in a marginal ear vein and femoral artery for drug delivery and sample collection respectively. Prior to treatment, blood samples were collected for coagulation tests (APTT and PT). Bleeding time was assessed from a cut made in the cuticle portion of a hind limb nail. Incisions were made in the neck region and the entire left common carotid artery and its branches were surgically isolated. An ultrasonic flow probe (Transonics®) was placed on the common carotid approximately 5 cm caudal to the common--internal bifurcation. After blood flow reached a stable baseline, drugs (saline or test compounds) were delivered via the marginal ear vein. A deflated embolectomy catheter (Fogarty®, 3F) was then introduced into the lumen of the common via an incision in the lingual branch. Blood flow through the artery was stopped briefly while the catheter was introduced and loosely secured with 2-0 silk tie at the incision site. After the catheter was in place and secure, blood flow was restored. The deflated balloon was advanced to within 2 mm of the flow probe and inflated with saline until resistance of the vessel wall was felt. The catheter was pulled back with a steady motion to the first branch and then deflated. This procedure was repeated a total of six times for each experimental animal, after which the catheter was removed. […] Over 40 minutes, blood samples were taken for APTT and PT measurements, cuticle bleeding times were assessed and blood flow through the carotid monitored. Duration of patency was defined as the total amount of time (maximum=40 minutes) that any measurable blood flow is detected in the artery. Patency rate refers to the percentage of animals tested who had carotid artery blood flow ≥5 minutes. At the end of the experiment the rabbit was euthanized and the carotid artery removed and opened. If any thrombus was present, it was removed, blotted and the weight recorded.
Table 3 below describes the results of the cuticle bleeding time assay at 10 minutes after dosing.

[2] = test system: rabbit plasma; experiment: APTT clotting time in rabbit plasma; assay type: biochemical; settings: 40 μM
Protocol: (§2) Samples of rabbit plasma were assayed using an MLA 800 coagulometer and Dade reagents. Actin FS® was the activator in the APTT assay. Rabbit Thromboplastin with Ca++ was used for the PT assays; the rabbit thromboplastin was diluted two-fold. All mutant inhibitors tested prolonged clotting by at least one fold. […] A greater than 10 fold prolongation of the clotting time at 40μM was observed.

[3] = molecular target: T1, TF-FVIIa (Homo sapiens, UniProt P08709); experiment: Enzyme inhibition assay, apparent equilibrium dissociation constant (Ki*) with TF-FVIIa; assay type: biochemical
T1 construct: is generated by proteolysis of a single peptide bond from its zymogen Factor VII (FVII); purchased Haematologic Technologies Inc. (FVIIa); TF1-243 made in house in E. coli; host or cells: E. coli (TF1-243)
Protocol: Aliquots (25 μL) from each well of a microtiter plate containing the serially diluted inhibitors were transferred into new microtiter plates, each containing a different protease (100 μL) in the appropriate buffer. The proteases tested (protease concentration, buffer, substrate) were FVIIa (10 nM, Buffer A, 0.7 mM S2366), FXIa (1.0 nM, Buffer B containing 1 mg/ml BSA, 0.7 mM S2366), plasma kallikrein (3.5 nM, Buffer B, 0.5 mM S2302), and plasmin (15 nM, Buffer B, 1 mM S2251).

[4] = test system: rabbit plasma; experiment: PT clotting time in rabbit plasma; assay type: biochemical; settings: 40 μM
Protocol: as §2

[5] = test system: normal human plasma; experiment: Activated partial thromboplastin time (APTT) assay, initiated by ellagic acid; assay type: biochemical
Protocol: For the activated partial thromboplastin time (APTT) assays, the activation time was set at 120 sec and acquisition time at 300 to 600 sec depending on the expected outcome of the assay. Citrated normal human plasma and inhibitor were incubated together. The sample (plasma and inhibitor) and activator (Instrumentation Laboratories Ellagic acid/Phospholipid mix Test Reagent) were automatically pipetted and incubated together for 2 min at 37° C., then CaCl2 was added and clotting time determined by means of optical assessment. The total incubation time of inhibitor with plasma was ca. 3 min before addition of activator, and 5 min before addition of CaCl2.

[6] = test system: Male New Zealand white rabbits; experiment: Rabbit deep medial injury model (carotid artery patency, thrombus weight); assay type: in vivo; settings: for Duration (Min.) of patency / Clot (mps): mean ± sem
Protocol: as §1

[7] = Heparin 1: 25 u/kg bolus then 0.5 u/kg/min infusion
[8] = Heparin 2: 25 u/kg bolus then 1 u/kg/min infusion

T1 sequence (P08709 213-466 limits assumed): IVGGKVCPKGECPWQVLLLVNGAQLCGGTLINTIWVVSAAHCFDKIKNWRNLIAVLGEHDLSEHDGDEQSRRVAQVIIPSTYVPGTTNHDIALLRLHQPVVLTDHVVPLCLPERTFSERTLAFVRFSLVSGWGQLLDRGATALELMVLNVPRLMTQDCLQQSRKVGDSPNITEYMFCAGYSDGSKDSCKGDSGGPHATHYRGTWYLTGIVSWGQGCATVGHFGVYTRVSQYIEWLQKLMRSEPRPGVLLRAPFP
T1 sequence (P08709 61-212 limits assumed): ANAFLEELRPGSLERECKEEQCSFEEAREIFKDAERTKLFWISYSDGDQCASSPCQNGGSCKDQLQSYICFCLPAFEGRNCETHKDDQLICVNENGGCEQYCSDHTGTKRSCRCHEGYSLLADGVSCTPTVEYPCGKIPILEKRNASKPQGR
T1 sequence (P13726 33-275 partner limits assumed): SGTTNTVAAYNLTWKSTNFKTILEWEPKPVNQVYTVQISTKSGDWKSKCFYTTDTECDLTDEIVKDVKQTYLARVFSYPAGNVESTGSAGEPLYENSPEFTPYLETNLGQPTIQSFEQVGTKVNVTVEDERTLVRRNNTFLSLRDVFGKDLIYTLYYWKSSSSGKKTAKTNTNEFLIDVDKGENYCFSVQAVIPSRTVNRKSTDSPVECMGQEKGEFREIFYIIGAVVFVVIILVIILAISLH

Compound: VREVCSEQAEPGPCRAMMKRWYFDVTEGKCAPFIYGGCYGNRNNFDTEEYCAAVCGSA (disulfide 5-55, 14-38, 30-51) [IV-49C]
- Cuticle bleeding time, fold increase over pre dose ([1]; 10 minutes after dosing, 2 mg/kg IV bolus): 1.0 ± 1.0 fold
- bleeding compared to the saline control (in words) [1]: did not induce prolonged bleeding

Compound: APPI: Alzheimer's amyloid β-protein precursor inhibitor, wild type Kunitz domain (58 residues, SEQ ID NO: 34) (VREVCSEQAETGPCRAMISRWYFDVTEGKCAPFFYGGCGGNRNNFDTEEYCMAVCGSA)
- APTT, fold increase over baseline [2]: 4.9 fold
- inhibition of TF-FVIIa (in words) [3]: moderate inhibitor
- Ki ([3]; FVIIa 10 nM and TF1-243 50 nM, representative of nine (TF7I-C) and seven (APPI) determinations, read-out: Ki* with TF-FVIIa (FIG. 5, representative determination)): 0.3 µM
- Ki ([3]; FVIIa 10 nM, TF1-243, S2366, pH 7.5, read-out: apparent equilibrium dissociation constant Ki* with TF-FVIIa): 0.301 ± 0.044 µM
- PT, fold increase over baseline [4]: 1.4 fold
- APTT clotting time, fold prolongation ([5]; 40 μM inhibitor, uninhibited 31 s): 3.6 fold
- APTT clotting time, fold prolongation ([5]; ca. 7 μM inhibitor): ca. 3 fold
- Patency (%) ([6]; 2 mg/kg IV bolus, animals with carotid blood flow ≥5 minutes): 40%
- Duration (Min.) of patency ([6]; 2 mg/kg IV bolus, maximum 40 minutes): 13.4 ± 8.5 min
- Clot (mps) ([6]; 2 mg/kg IV bolus, thrombus weight): 49.5 ± 18.2 mps
- Cuticle bleeding time, fold increase over pre dose ([1]; rabbit, in vivo, iv, 2 mg/kg): 2.2 ± 0.6 fold

- Cuticle bleeding time, fold increase over pre dose ([1]; rabbit, in vivo): 1.7 ± 0.4 fold
Compound: Heparin
- Patency (%) [6, 7]: 67%
- Clot (mps) [6, 7]: 13.6 ± 4.7 mps
- Duration (Min.) of patency [6, 7]: 23.3 ± 6.7 min
- Patency (%) [6, 8]: 100%
- Clot (mps) [6, 8]: 19.1 ± 8.5 mps
- Duration (Min.) of patency [6, 8]: 35.2 ± 2.2 min
- patency and clot size compared to the saline control (in words) ([6]; rabbit, in vivo): significantly prolonged patency and reduced clot size

Compound: CC[C@H](C)[C@@H]1NC(=O)[C@H](CC(C)C)NC(=O)[C@H](C)NC(=O)[C@H](CCCNC(=N)N)NC(=O)[C@@H]2CSSC[C@@H]3NC(=O)CNC(=O)CNC(=O)[C@H](Cc4ccc(O)cc4)NC(=O)[C@H](Cc4ccccc4)NC(=O)[C@H](Cc4ccccc4)NC(=O)[C@@H]4CCCN4C(=O)[C@H](C)NC(=O)[C@H](CSSC[C@H](NC(=O)[C@H](Cc4ccc(O)cc4)NC(=O)[C@H](CCC(=O)O)NC(=O)[C@H](CCC(=O)O)NC(=O)[C@H]([C@@H](C)O)NC(=O)[C@H](CC(=O)O)NC(=O)[C@H](Cc4ccccc4)NC(=O)[C@H](CC(N)=O)NC(=O)[C@H](CC(N)=O)NC(=O)[C@H](CCCNC(=N)N)NC(=O)[C@H](CC(N)=O)NC(=O)CNC(=O)[C@H](Cc4ccc(O)cc4)NC3=O)C(=O)N[C@@H](C)C(=O)N[C@@H](C)C(=O)N[C@@H](C(C)C)C(=O)N[C@H](C(=O)NCC(=O)N[C@@H](CO)C(=O)N[C@@H](C)C(=O)O)CSSC[C@H](NC(=O)[C@@H](NC(=O)[C@H](CCC(=O)O)NC(=O)[C@H](CCCNC(=N)N)NC(=O)[C@@H](N)C(C)C)C(C)C)C(=O)N[C@@H](CO)C(=O)N[C@@H](CCC(=O)O)C(=O)N[C@@H](CCC(N)=O)C(=O)N[C@@H](C)C(=O)N[C@@H](CCC(=O)O)C(=O)N3CCC[C@H]3C(=O)NCC(=O)N3CCC[C@H]3C(=O)N2)NC(=O)[C@H](CCCCN)NC(=O)CNC(=O)[C@H](CCC(=O)O)NC(=O)[C@H]([C@@H](C)O)NC(=O)[C@H](C(C)C)NC(=O)[C@H](CC(=O)O)NC(=O)[C@H](Cc2ccccc2)NC(=O)[C@H](Cc2ccc(O)cc2)NC(=O)[C@H](Cc2c[nH]c3ccccc23)NC(=O)[C@H](CCCNC(=N)N)NC(=O)[C@H](CC(C)C)NC1=O [TF7I-C]
- bleeding compared to the saline control (in words) [1]: did not induce prolonged bleeding
